Consider 13 compounds from ChEMBL document CHEMBL1132162, “Microanalysis of a selective potent anti-Helicobacter pylori compound in a Brazilian medicinal plant, Myroxylon peruiferum and the activity of analogues” (1999).

In brackets after ≈: the same amount, converted by molar mass. Activity calls are given as the source filed them.

One experiment concerns Helicobacter pylori. Description: Anti-bacterial activity against Helicobacter pylori. Format: functional.
Another experiment relates to Escherichia coli. Put plainly: Anti-microbial activity against gram-negative bacteria Escherichia coli at 625 ug/mL concentration; Inactive. Format: functional, organism-based.
The next experiment concerns Bacillus subtilis. Put plainly: Anti-microbial activity against gram-positive bacteria Bacillus subtilis at 625 ug/mL concentration; Inactive. Format: functional, organism-based.
A further experiment relates to Micrococcus luteus. Description: Anti-microbial activity against gram-positive bacteria Micrococcus lutea at 625 ug/mL concentration; Inactive. Format: functional, organism-based.
The next experiment deals with Saccharomyces cerevisiae. Description: Anti-microbial activity against yeast Saccharomyces cerevisiae at 625 ug/mL concentration; Inactive. Format: functional, organism-based.
In the next experiment the test system is Candida albicans. Description: Anti-microbial activity against yeast candida albicans at 625 ug/mL concentration; Inactive. Format: functional, organism-based.
In a further experiment the test system is Pseudomonas aeruginosa. Put plainly: Anti-microbial activity against gram-negative bacteria Pseudomonas aeruginosa at 625 ug/mL concentration; Inactive. Format: functional, organism-based.
Another experiment has as its system Bacteroides fragilis. Description: Anti-microbial activity against gram-positive bacteria Bacteroides fragilis at 625 ug/mL concentration; Inactive. Format: functional, organism-based.

In the experiment on Helicobacter pylori, `COc1ccc(-c2coc3cc(OC)ccc3c2=O)cc1` came in with a minimal inhibitory concentration (MIC) of over 20 µg/mL.
Still for that read-out and setting: then `O=c1c(-c2ccc(O)c(O)c2)coc2cc(O)ccc12`, with over 20 µg/mL.
Same read-out and setting: for `O=c1ccoc2ccccc12` [CHROMONE] the value was over 20 µg/mL; for `CCOc1ccc2c(=O)c(-c3ccc(OCC)c(OCC)c3)coc2c1`, 18 µg/mL (≈ 50.8 µM); for `COc1ccc(CC(=O)c2ccc(OC)cc2)cc1`, over 20 µg/mL.
The same measure, in the same setting: then `COc1ccc(-c2coc3cc(OC)c(OC)cc3c2=O)cc1`, with over 20 µg/mL.
In the experiment with Helicobacter pylori, `COc1ccc2c(=O)cc(-c3ccc(OC)c(OC)c3)oc2c1` [7,3',4'-Trimethoxyflavone] showed a minimal inhibitory concentration (MIC) of over 20 µg/mL.
The same measure, in the same setting: for `COc1ccc2c(c1)OC=C(c1ccc(OC)c(OC)c1)[C@H]2O` the value was 16 µg/mL (≈ 50.9 µM).
In the case of `COc1ccc2c(=O)c(-c3ccc(OC)c(OC)c3)coc2c1`, the result in the experiment on Escherichia coli, with Bacillus subtilis, with Micrococcus luteus, in the experiment on Saccharomyces cerevisiae, with Candida albicans and in the experiment with Pseudomonas aeruginosa was inactive. Also, in the experiment with Bacteroides fragilis, the outcome was inactive. This compound also returned a minimal inhibitory concentration (MIC) in the experiment on Helicobacter pylori of 7.8 µg/mL (≈ 25 µM).
With `COc1ccc2c(c1)OC=C(c1ccc(OC)c(OC)c1)[C@@H]2O`, the MIC against Helicobacter pylori was 16 µg/mL (≈ 50.9 µM).
In turn, `COc1ccc(C)cc1OC` came in with a minimal inhibitory concentration (MIC) against Helicobacter pylori of over 20 µg/mL.
On the same count and under the same terms, then `COc1ccc(-c2coc3cc(OC)cc(OC)c3c2=O)cc1` [BIOCHANIN A, DIMETHYL ETHER], with over 20 µg/mL; and `COc1ccc2c(c1)OCC(c1ccc(OC)c(OC)c1)C2=O` (stereo not given), with over 20 µg/mL.

Broadly, the MIC is the smallest concentration in the dilution series that meets the test's criterion for growth inhibition. A low value points to inhibition by little substance.
